Measured values as given in ChEMBL document CHEMBL3616377, “2-(3'-Indolyl)-N-arylthiazole-4-carboxamides: Synthesis and evaluation of antibacterial and anticancer activities” (Bioorg Med Chem Lett, 2015).
In brackets after ≈: the same amount, converted by molar mass.

How the values were obtained:
Staphylococcus aureus [1] = experiment: Antibacterial activity against Staphylococcus aureus MTCC 96 after 18 to 24 hrs by broth microdilution method; format: functional
Staphylococcus aureus [2] = experiment: Antibacterial activity against Staphylococcus aureus MTCC 96 after 18 to 24 hrs by agar well diffusion method; format: functional
Bacillus subtilis [3] = experiment: Antibacterial activity against Bacillus subtilis MTCC 121 after 18 to 24 hrs by agar well diffusion method; format: functional
Bacillus subtilis [4] = experiment: Antibacterial activity against Bacillus subtilis MTCC 121 after 18 to 24 hrs by broth microdilution method; format: functional
Escherichia coli [5] = experiment: Antibacterial activity against Escherichia coli MTCC 1652 after 18 to 24 hrs by agar well diffusion method; format: functional
Escherichia coli [6] = experiment: Antibacterial activity against Escherichia coli MTCC 1652 after 18 to 24 hrs by broth microdilution method; format: functional
Pseudomonas putida [7] = experiment: Antibacterial activity against Pseudomonas putida MTCC 102 after 18 to 24 hrs by agar well diffusion method; format: functional
Pseudomonas putida [8] = experiment: Antibacterial activity against Pseudomonas putida MTCC 102 after 18 to 24 hrs by broth microdilution method; format: functional
[9] = Solubility of the compound in 0.05 to 0.1% DMSO; format: physicochemical
HeLa [10] = experiment: Cytotoxicity against human HeLa cells after 48 hrs by MTT assay in absence of 10% FBS; format: functional, cell-based
PC-3 [11] = experiment: Cytotoxicity against human PC3 cells after 48 hrs by MTT assay in absence of 10% FBS; format: functional, cell-based; conditions: PC-3, 48 h
MDA-MB-231 [12] = experiment: Cytotoxicity against human MDA-MB-231 cells after 48 hrs by MTT assay in absence of 10% FBS; format: functional, cell-based; conditions: MDA-MB-231, 48 h
LNCaP [13] = experiment: Cytotoxicity against human LNCAP cells after 48 hrs by MTT assay in absence of 10% FBS; format: functional, cell-based
HEK-293T [14] = experiment: Cytotoxicity against human HEK293T cells after 48 hrs by MTT assay in presence of 10% FBS; format: cell-based
[15] = Cytotoxicity against human castration-resistant C4-2 cells after 48 hrs by MTT assay in presence of 10% FBS; format: functional, cell-based; conditions: LNCaP C4-2, 48 h
HeLa [16] = experiment: Cytotoxicity against human HeLa cells after 48 hrs by MTT assay in presence of 10% FBS; format: functional, cell-based
PC-3 [17] = experiment: Cytotoxicity against human PC3 cells after 48 hrs by MTT assay in presence of 10% FBS; format: functional, cell-based; conditions: PC-3, 48 h
MDA-MB-231 [18] = experiment: Cytotoxicity against human MDA-MB-231 cells after 48 hrs by MTT assay in presence of 10% FBS; format: functional, cell-based; conditions: MDA-MB-231, 48 h
LNCaP [19] = experiment: Cytotoxicity against human LNCAP cells after 48 hrs by MTT assay in presence of 10% FBS; format: functional, cell-based
HEK-293T [20] = experiment: Cytotoxicity against human HEK293T cells after 48 hrs by MTT assay in absence of 10% FBS; format: cell-based
[21] = Cytotoxicity against human castration-resistant C4-2 cells after 48 hrs by MTT assay in absence of 10% FBS; format: functional, cell-based; conditions: LNCaP C4-2, 48 h

| SMILES | MIC (Staphylococcus aureus [1]) [µg/mL] | inhibition zone (IZ) (Staphylococcus aureus [2]) [mm] | inhibition zone (IZ) (Bacillus subtilis [3]) [mm] | MIC (Bacillus subtilis [4]) [µg/mL] | inhibition zone (IZ) (Escherichia coli [5]) [mm] | MIC (Escherichia coli [6]) [µg/mL] | inhibition zone (IZ) (Pseudomonas putida [7]) [mm] | MIC (Pseudomonas putida [8]) [µg/mL] | IC50 (HeLa [10]) [µM] | IC50 (PC-3 [11]) [µM] | IC50 (MDA-MB-231 [12]) [µM] | IC50 (LNCaP [13]) [µM] | IC50 (HEK-293T [14]) [µM] | IC50 [15] [µM] | IC50 (HeLa [16]) [µM] | IC50 (PC-3 [17]) [µM] | IC50 (MDA-MB-231 [18]) [µM] | IC50 (LNCaP [19]) [µM] | IC50 (HEK-293T [20]) [µM] | IC50 [21] [µM] | other results |
| --- | --- | --- | --- | --- | --- | --- | --- | --- | --- | --- | --- | --- | --- | --- | --- | --- | --- | --- | --- | --- | --- |
| COc1ccc(NC(=O)c2csc(-c3c[nH]c4ccccc34)n2)cc1 | 100 (≈ 286 µM) | 11 | 12 | 100 (≈ 286 µM) | 14 | 50 (≈ 143 µM) | 12 | 100 (≈ 286 µM) | – | – | – | – | – | – | – | – | – | – | – | – | solubility [9]: Insoluble |
| Cc1ccc(NC(=O)c2csc(-c3c[nH]c4ccccc34)n2)cc1 | – | – | – | – | 12 | 100 (≈ 300 µM) | 12 | 100 (≈ 300 µM) | > 100 | > 100 | > 100 | > 100 | > 100 | > 100 | > 100 | > 100 | > 100 | > 100 | > 100 | > 100 | – |
| COc1cc(NC(=O)c2csc(-c3c[nH]c4ccc(Br)cc34)n2)cc(OC)c1OC | 50 (≈ 102 µM) | 15 | 16 | 12.5 (≈ 25.6 µM) | 14 | 50 (≈ 102 µM) | 16 | 12.5 (≈ 25.6 µM) | 55.8 | > 100 | > 100 | > 100 | 32.8 | > 100 | 93 | > 100 | > 100 | > 100 | > 100 | > 100 | – |
| CN(C)c1ccc(NC(=O)c2csc(-c3c[nH]c4ccccc34)n2)cc1 | 100 (≈ 276 µM) | 13 | 14 | 50 (≈ 138 µM) | 12 | 100 (≈ 276 µM) | 14 | 50 (≈ 138 µM) | – | – | – | – | – | – | – | – | – | – | – | – | solubility [9]: Insoluble |
| O=C(NCc1ccccc1)c1csc(-c2c[nH]c3ccccc23)n1 | – | – | – | – | 13 | 100 (≈ 300 µM) | 13 | 100 (≈ 300 µM) | 9.51 | > 100 | > 100 | > 100 | 74.5 | > 100 | 41.4 | > 100 | > 100 | > 100 | > 100 | > 100 | – |
| COc1cc(NC(=O)c2csc(-c3cn(Cc4ccc(Cl)cc4)c4ccccc34)n2)cc(OC)c1OC | 100 (≈ 187 µM) | 13 | 12 | 100 (≈ 187 µM) | 15 | 50 (≈ 93.6 µM) | 14 | 100 (≈ 187 µM) | 91.4 | > 100 | > 100 | 97.7 | > 100 | > 100 | > 100 | > 100 | > 100 | > 100 | 58.7 | > 100 | – |
| COc1cc(NC(=O)c2csc(-c3c[nH]c4ccc(F)cc34)n2)cc(OC)c1OC | 100 (≈ 234 µM) | 12 | 10 | 100 (≈ 234 µM) | 14 | 50 (≈ 117 µM) | 14 | 50 (≈ 117 µM) | > 100 | 89 | > 100 | > 100 | 66 | > 100 | 48.9 | > 100 | > 100 | 88.5 | > 100 | > 100 | – |
| COc1ccc(NC(=O)c2csc(-c3c[nH]c4ccc(F)cc34)n2)cc1 | 100 (≈ 272 µM) | 12 | 13 | 100 (≈ 272 µM) | 14 | 50 (≈ 136 µM) | 13 | 100 (≈ 272 µM) | 3.41 | > 100 | 49.4 | 66.4 | > 100 | > 100 | 33.5 | > 100 | > 100 | 75.4 | 12.1 | > 100 | – |
| O=C(Nc1ccccc1)c1csc(-c2cn(Cc3ccc(Cl)cc3)c3ccccc23)n1 | 100 (≈ 225 µM) | 12 | 13 | 100 (≈ 225 µM) | 15 | 50 (≈ 113 µM) | 15 | 50 (≈ 113 µM) | 24.3 | 76.4 | 50.5 | 64.1 | > 100 | > 100 | 32.1 | > 100 | > 100 | 68.9 | > 100 | > 100 | – |
| O=C(Nc1ccccc1)c1csc(-c2c[nH]c3ccccc23)n1 | 50 (≈ 157 µM) | 14 | – | – | 13 | 100 (≈ 313 µM) | 13 | 100 (≈ 313 µM) | > 100 | > 100 | 79.4 | > 100 | > 100 | > 100 | > 100 | > 100 | > 100 | > 100 | 41.1 | > 100 | – |
| O=C(O)c1cn(C2CC2)c2cc(N3CCNCC3)c(F)cc2c1=O [CIPROFLOXACIN] | – | 23 | 24 | 6.25 (≈ 18.9 µM) | – | – | 21 | 12.5 (≈ 37.7 µM) | – | – | – | – | – | – | – | – | – | – | – | – | – |
| COc1ccc(NC(=O)c2csc(-c3cn(Cc4ccc(Cl)cc4)c4ccccc34)n2)cc1 | 100 (≈ 211 µM) | 14 | 15 | 50 (≈ 105 µM) | 16 | 12.5 (≈ 26.4 µM) | 16 | 12.5 (≈ 26.4 µM) | > 100 | > 100 | 84.9 | > 100 | > 100 | > 100 | 90.9 | > 100 | > 100 | > 100 | > 100 | > 100 | – |
